# Assay results published in US20180258100A1, “RAPAMYCIN ANALOGS SHOWING IMPROVED mTORC1 SPECIFICITY” (priority 2015, published 2018).
# Values joined by “and” are separate entries in the source; they are usually repeats but may differ in a detail not shown here. Equal values may be shown once.
# Legend:
# [1] = biological target: T1, mTORC1 (Mus musculus, UniProt P26883+Q9JLN9); experiment: Western blot of mouse tissues after 3 weeks i.p. dosing, mTORC1 (P-S6/total S6); type: in vivo, female C57BL/6J mice; conditions: 12 mg/kg i.p. every other day for 3 weeks
# Description: (§1) 10-week old female C57BL/6J mice were given intraperitoneal injections of 8 mg/kg rapamycin (LC laboratories), 12 mg/kg compound 390 or vehicle every other day for three weeks (N=5 mice/group), such as to mimic chronic exposure conditions. 24 hours after the last injection, tissues were dissected from the mice and immediately frozen in liquid nitrogen. The tissues were homogenized using the Omni TH homogenizer (Omni International) on ice in RIPA buffer and then centrifuged at 13,000 rpm for 15 minutes at 4° C. The supernatants were collected and protein concentration was determined using the DC protein assay (Biorad).
# (§2) The mTORC1/2 inhibition was determined by Western blots. Equal amounts of protein were resolved by SDS-PAGE and transferred to nitrocellulose membrane using the Invitrogen Nu-Page system. The membranes were blocked for 1 h in 5% milk and incubated overnight in the appropriate antibodies. The following day, blots were washed 3 times in TBST, incubated for 2 h with secondary antibodies (donkey anti rabbit hrp conjugated), and finally washed an additional 3 times in TBST. ECL Prime (Amersham) was used to detect the proteins of interest and ImageJ software was used to quantify the band intensity of the Western blots.
# [2] = biological target: mTORC2 (Mus musculus, UniProt P26883+Q9JLN9); experiment: Western blot of mouse tissues after 3 weeks i.p. dosing, mTORC2 (P-AKT/Total AKT); type: in vivo, female C57BL/6J mice; conditions: soleus muscle, 12 mg/kg i.p. every other day for 3 weeks
# Description: as §1, §2
# [3] = biological target: T1, mTORC1; experiment: Immunoblot of liver, muscle and brain after four weeks, mTORC1; type: in vivo, male C57BL/6J mice; conditions: rapamycin 8 mg/kg, compound 390 12 mg/kg i.p. every other day
# Description: Fortyfive C57BL/6J male mice, housed three per cage, were weighed and their body composition was measured with an EchoMRI 3-in-1 system. […] Mice received every-other-day injections of either vehicle, rapamycin (8 mg/kg), or compound 390 (12 mg/kg). A glucose tolerance test was performed after 2 weeks (morning after the 8th injection). A pyruvate tolerance test was performed after 3 weeks. Glucose stimulated insulin secretion assay was performed after 4 weeks and additional blood was collected for whole blood analysis. Body composition was measured on day −2 and day 31.
# For western blotting, antibodies to phospho-Akt S473 (4060), Akt (4691), phospho-S6 ribosomal protein (2215), S6 ribosomal protein (2217), phospho-4E-BP1 S65 (9451) and 4E-BP1 (9452) were from Cell Signaling Technology.
# Cells and tissue samples were lysed in cold RIPA buffer supplemented with phosphatase inhibitor and protease inhibitor cocktail tablets (PI88669, Fisher Scientific). Tissues were lysed in RIPA buffer using a FastPrep 24 (M.P. Biomedicals) with bead-beating tubes and ceramic beads (Mo-Bio Laboratories), and then centrifuged. Protein concentration was determined by Bradford assay (Pierce Biotechnology). Protein was separated by sodium dodecylsulphate-polyacrylamide gel electrophoresis (SDS-PAGE) on 8, 10, or 16% resolving gels (Life Technologies).
# [4] = biological target: T2, mTORC1 (Homo sapiens, UniProt P42345+P62942); experiment: AlphaLISA SureFire in PC3 cells, phosphorylation of S6 at Ser240/Ser244 (mTORC1 inhibition, selectivity ratios); type: cell-based
# T2 construct: endogenous in cells; host or cells: PC3 cells
# Description: PC3 cells were maintained in F12K media (ATCC/GIBCO, Cat# ATCC 30-2004) supplemented with additional 10% FBS (Gemini, cat#100-106), 1% Penicillin/Streptomycin (Life Technologies, cat #15140-122), and 2 mM L-Glutamine (Life Technologies, cat#25030) and cultured at 37° C. For AlphaLISA experiments, cells were seeded in 96-well plates for 24 hours and treated at various concentrations of compound (from approx. 8 fM to 10 μM) for 24 hours. Cells were harvested by lysis in the buffer supplied with the AlphaLISA kit. […] Cells from plates were lysed and incubated for 10 min at room temperature while shaking. Cell lysates were incubated with acceptor mix for 2 hours at room temperature; the donor mix was then added and the resulting solution was incubated for 2 hours at room temperature. AlphaLISA® signal was determined on a Fusion-Alpha FP HT (Perkin Elmer). Percent inhibition was calculated by comparison to the highest inhibition value obtained in the response-concentration curve. IC50s were calculated using Prism software.
# [5] = Steady state glucose levels after one week of i.p. dosing; type: in vivo, female C57BL/6J mice; conditions: 12 mg/kg i.p. every other day, versus vehicle
# Description: as §1
# Steady state glucose levels were determined after one week from study initiation using a Bayer Contour blood glucose meter and test strips from small blood samples, which were withdrawn from a tail vein nick. At the end of the second week, the animals were challenged by administration of 2 mg/kg glucose; glucose levels were determined for two hours following the challenge at 30 min intervals.
# [6] = biological target: T2, mTORC1; experiment: Western blot of PC3 cells treated with 100 nM compound, mTORC1 readout (pS6k/S6k); type: cell-based
# Description: Protein concentrations were determined using the DC protein assay (Biorad). Equal amounts of protein were resolved by SDS-PAGE and transferred to nitrocellulose membrane using the Nu-Page system. […] The following day, blots were washed 3 times in TBST, incubated for 2 h with secondary antibodies, and finally washed an additional 3 times in TBST.
# [7] = heart, visceral fat, pancreas, kidney
# Sequence of mTORC2 (P26883 2-108 limits assumed, other chains not shown): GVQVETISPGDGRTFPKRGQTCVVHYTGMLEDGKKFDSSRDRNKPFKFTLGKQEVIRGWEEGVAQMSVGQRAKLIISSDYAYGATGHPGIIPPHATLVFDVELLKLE
compound,measurement,setting,value
"CO[C@H]1CC2CC[C@@H](C)[C@@](O)(O2)C(=O)C(=O)N2CCCC[C@H]2C(=O)O[C@H]([C@@H](C)CC2CCC(O)CC2)CC(=O)[C@@H](C)/C=C(\C)[C@H](O)[C@H](O)C(=O)[C@@H](C)C[C@H](C)/C=C/C=C/C=C/1C (stereo partly drawn) [compound 390, 27-O-Desmethyl-39-Desmethoxy Rapamycin]",mTORC1 inhibition in tissues,[1]; soleus muscle and liver,only partially inhibits mTORC1
same,mTORC1 inhibition in tissues,"[1]; visceral fat, gastrocnemius muscle, pancreas, lung and kidney",strong inhibition of mTORC1
same,mTORC2 inhibition in tissues,"[2]; gastrocnemius muscle, lung, liver",very weak
same,change of mTORC2 activity in tissues,[2]; [7],small upregulation of mTORC2 activity
same,mTORC2 inhibition in tissues,[2]; [7],no inhibition of mTORC2
same,"mTORC1 inhibition in liver, muscle and brain",[3],significantly inhibits mTORC1 at approximately the same level as rapamycin
same,improvement of mTORC1 over mTORC2 selectivity compared to rapamycin (average),[4]; AlphaLISA IC50 ratios,51 fold
same,improvement of mTORC1 over mTORC2 selectivity compared to rapamycin (range),[4]; AlphaLISA IC50 ratios,52-63 fold
same,Average IC50^mTORC2/IC50^mTORC1,"[4]; average of four replicates, 24 h",429.90
same,IC50^mTORC2/IC50^mTORC1,"[4]; single replicates #1-#4 (N = 3 each), mTORC2 IC50 of the measurement divided by average mTORC1 IC50, 24 h, listed as nID390",477.07 and 533.79 and 445.85 and 262.89
same,change of steady state glucose plasma levels,[5],does not produce any substantial or statistically significant increase
same,mTORC1 inhibition (pS6k/S6k),[6],full mTORC1 inhibition
